Values joined by “and” are separate entries in the source; they are usually repeats but may differ in a detail not shown here. Identical values can stand only once. “Also recorded” adds a separate entry of the source.
How the values were obtained:
Format in all cases: biochemical
EcoRI = molecular target: T1, EcoRI (Escherichia coli, UniProt P00642); assay: EcoRI cleavage control in the absence of Polθ-pol; details: for cleavage %: EcoRI; for % cleavage: compound 10 µM
T1 construct: purchased New England Biolabs
Description: (§1) EcoRI and KpnI endonucleases assay: 25 nM 5’-^32P radiolabeled primer-template DNA Sc15-EcoRI (5’-^32P LM3-EcoRI/LM4-EcoRI) or Sc19-KpnI (5’-^32P LM11-Kpn/LM12-Kpn) in reaction buffer (25 mM Tris-HCl pH 7.5, 10 mM MgCl2, 10% glycerol, 0.1 mg/mL BSA, 0,01% igepal, 1 mM DTT) were incubated in the presence or in the absence of 50 nM Polθ-pol, 100 μM ddCTP, and 10 μM inhibitors, as indicated, for 5 min at room temperature. Next, 0.08 U/μL EcoRI or KpnI together with 500 nM “trapping” DNA Sc14 (RP559/RP702) were added and incubated for further 0–40 min at 30 °C as indicated. 10 nM PolθΔcen and FL-Polθ and 25 nM Sc15-EcoRI and Sc19-Kpn were probed with 0.04 U/μL EcoRI or KpnI (both from New England Biolabs) using the same conditions. Reactions were stopped by addition of formamide loading buffer with 50 mM EDTA, resolved in denaturing 20% urea PAAG and analyzed using Typhoon PhosphorImager (GE Amersham). Quantification was done in ImageQuant TL software. All quantified experiments were performed in triplicates and plotted as mean with ± s.d using GraphPad Prism 9 software.

Polθ-pol:DNA/DNA complex [1] = molecular target: T2, Polθ-pol:DNA/DNA complex (Homo sapiens, UniProt O75417); assay: KpnI endonuclease protection assay; details: for i (%), normalized to 100%, ave(%) / i (%), replicates: 14 nt i; for i+1 (%) normalized to 100%, ave(%) / i+1 (%), replicates: 15 nt i+1
T2 construct: purified recombinant human Polθ-pol (comprising amino acid residues 1792–2590); made in house
T2 sequence (O75417 1792-2590): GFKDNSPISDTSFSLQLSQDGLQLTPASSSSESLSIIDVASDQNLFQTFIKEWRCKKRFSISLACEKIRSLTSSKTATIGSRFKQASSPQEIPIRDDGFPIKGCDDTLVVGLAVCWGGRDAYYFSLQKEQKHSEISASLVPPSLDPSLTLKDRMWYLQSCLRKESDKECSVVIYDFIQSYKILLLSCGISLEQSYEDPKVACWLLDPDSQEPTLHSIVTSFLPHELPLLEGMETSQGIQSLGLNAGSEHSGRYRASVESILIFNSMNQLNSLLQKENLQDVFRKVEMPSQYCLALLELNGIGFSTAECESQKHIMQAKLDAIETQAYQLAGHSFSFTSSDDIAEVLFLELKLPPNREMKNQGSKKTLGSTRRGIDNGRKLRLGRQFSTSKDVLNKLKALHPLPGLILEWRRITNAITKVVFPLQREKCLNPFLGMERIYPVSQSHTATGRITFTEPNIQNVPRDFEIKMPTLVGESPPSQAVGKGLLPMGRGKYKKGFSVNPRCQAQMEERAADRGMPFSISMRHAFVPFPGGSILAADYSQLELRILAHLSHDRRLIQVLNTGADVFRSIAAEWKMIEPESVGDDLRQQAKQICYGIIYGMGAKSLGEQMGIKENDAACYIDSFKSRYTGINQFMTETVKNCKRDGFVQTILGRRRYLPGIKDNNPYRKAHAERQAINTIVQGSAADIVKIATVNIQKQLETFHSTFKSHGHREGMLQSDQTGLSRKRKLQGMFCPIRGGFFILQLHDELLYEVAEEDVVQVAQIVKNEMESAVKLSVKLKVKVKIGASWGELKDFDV
Description: as §1

Polθ-pol:DNA/DNA complex [2] = molecular target: T2, Polθ-pol:DNA/DNA complex; assay: EcoRI endonuclease protection assay; details: for EcoRI cleavage %, ave / EcoRI cleavage %, replicates #1-#3: Eco+pol+ddC+RTx compound; for cleavage normalized to 100%, i: 14 nt i; for cleavage normalized to 100%, i+1: 15 nt i+1; for i (%) (14 nt), replicates #1-#3 / i (%), normalized to 100%, ave(%) / i+1 (%) (15 nt), replicates #1-#3 / i+1 (%) normalized to 100%, ave(%): pol+ddC+compound;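 for i+1 (%) (15 nt), replicates #1-#3: i+1 is one-nucleotide extended DNA within post-catalytic complexes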
Description: as §1

Polθ-pol = molecular target: T3, Polθ-pol (Homo sapiens, UniProt O75417); assay: MMEJ in vitro assay
T3 construct: purified recombinant human Polθ-pol (comprising amino acid residues 1792–2590); made in house
T3 sequence (O75417 1792-2590): T2 sequence (O75417 1792-2590)
Description: For the MMEJ in vitro assay in the presence of RTx-161, 10 nM Polθ-pol was first mixed with DMSO (3% final concentration) or RTx-161 at indicated final concentrations 4–500 nM in reaction buffer (25 mM Tris-HCl pH 7.5, 10 mM MgCl2, 10% glycerol, 0.1 mg/mL BSA, 0,01% IGEPAL CA-630, 1 mM DTT) followed by incubation for 5 min at room temperature. MMEJ reactions were started by the addition of 50 μM dNTP and 25 nM 5’-^32P radiolabeled pssDNA (RP343/^32P-RP344), incubated for 15 min at 37 °C, stopped by the addition of denaturing formamide loading buffer with 50 mM EDTA, resolved in denaturing 20% PAGE and analyzed using Typhoon PhosphorImager (GE Amersham). Quantification was performed using ImageQuant TL software. For the MMEJ in vitro assay in the presence of MC160385, 0.2–10 μM MC160385, 10 nM Polθ-pol, 60 nM 5’-^32P radiolabeled pssDNA and 100 μM dNTPs were used. The reaction was performed as above and stopped by the Proteinase K treatment in 50 mM EDTA and 0.5% SDS. The products were resolved in native 12% PAGE at room temp and analyzed as above.

T1 sequence (P00642 2-277 limits assumed): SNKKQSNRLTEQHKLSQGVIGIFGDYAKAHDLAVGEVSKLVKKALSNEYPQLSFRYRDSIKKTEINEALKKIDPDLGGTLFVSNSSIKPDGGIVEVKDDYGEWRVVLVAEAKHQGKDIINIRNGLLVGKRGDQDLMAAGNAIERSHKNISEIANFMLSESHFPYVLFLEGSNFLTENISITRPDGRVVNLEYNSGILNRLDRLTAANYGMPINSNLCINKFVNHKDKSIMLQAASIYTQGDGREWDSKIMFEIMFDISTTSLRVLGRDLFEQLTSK

CN1CCN(c2cc(C(F)(F)F)cc(C(F)(F)F)c2OC(=O)N(C)c2ccc(F)cc2)C1=O [RTx-152]
cleavage % (EcoRI; 3 min): 27.4%
cleavage % (EcoRI; 6 min): 49.4%
inhibition of EcoRI activity (EcoRI; absence of Polθ-pol): resistant to inhibition; also recorded: do not inhibit
% cleavage (EcoRI; cleavage 3 min): 27%
% cleavage (EcoRI; cleavage 6 min): 49%
KpnI cleavage %, ave (Polθ-pol:DNA/DNA complex [1]; Kpn+pol+ddC+RTx152, 2.5min): 0.358%
KpnI cleavage %, replicates (Polθ-pol:DNA/DNA complex [1]; Kpn+pol+ddC+RTx152, 2.5min): 0.0% and 0.447% and 0.6%
KpnI cleavage %, ave (Polθ-pol:DNA/DNA complex [1]; Kpn+pol+ddC+RTx152, 5min): 0.665%
KpnI cleavage %, replicates (Polθ-pol:DNA/DNA complex [1]; Kpn+pol+ddC+RTx152, 5min): 0.321% and 0.8% and 0.9%
KpnI cleavage %, ave (Polθ-pol:DNA/DNA complex [1]; Kpn+pol+ddC+RTx152, 10min): 2.1%
KpnI cleavage %, replicates (Polθ-pol:DNA/DNA complex [1]; Kpn+pol+ddC+RTx152, 10min): 1.8% and 2.3% and 2.0%
trapping of post-catalytic complexes, different sequence context (Polθ-pol:DNA/DNA complex [1]; KpnI): identical trapping
i (%), normalized to 100%, ave(%) (Polθ-pol:DNA/DNA complex [1]; KpnI, pol+ddC+152, 2.5 min): 100.0%
i (%), replicates (Polθ-pol:DNA/DNA complex [1]; KpnI, pol+ddC+152, 2.5 min): 35.4% and 37.2% and 33.9%
i+1 (%) normalized to 100%, ave(%) (Polθ-pol:DNA/DNA complex [1]; KpnI, pol+ddC+152, 2.5 min): 100.0%
i+1 (%), replicates (Polθ-pol:DNA/DNA complex [1]; KpnI, pol+ddC+152, 2.5 min): 53.1% and 50.1% and 54.1%
i (%), normalized to 100%, ave(%) (Polθ-pol:DNA/DNA complex [1]; KpnI, pol+ddC+152, 5 min): 85.8%
i (%), replicates (Polθ-pol:DNA/DNA complex [1]; KpnI, pol+ddC+152, 5 min): 30.7% and 32.1% and 28.6%
i+1 (%) normalized to 100%, ave(%) (Polθ-pol:DNA/DNA complex [1]; KpnI, pol+ddC+152, 5 min): 107.9%
i+1 (%), replicates (Polθ-pol:DNA/DNA complex [1]; KpnI, pol+ddC+152, 5 min): 57.1% and 52.5% and 60.1%
i (%), normalized to 100%, ave(%) (Polθ-pol:DNA/DNA complex [1]; KpnI, pol+ddC+152, 10 min): 63.7%
i (%), replicates (Polθ-pol:DNA/DNA complex [1]; KpnI, pol+ddC+152, 10 min): 21.4% and 24.5% and 21.9%
i+1 (%) normalized to 100%, ave(%) (Polθ-pol:DNA/DNA complex [1]; KpnI, pol+ddC+152, 10 min): 120.8%
i+1 (%), replicates (Polθ-pol:DNA/DNA complex [1]; KpnI, pol+ddC+152, 10 min): 62.6% and 62.1% and 65.2%
suppression of EcoRI cleavage (Polθ-pol:DNA/DNA complex [2]; 10 μM inhibitor, ddCTP): strong suppression of endonuclease cleavage
time Polθ-pol is trapped on DNA/DNA (EcoRI cleavage suppressed) (Polθ-pol:DNA/DNA complex [2]; 10 μM inhibitor, ddCTP): > 40 min
EcoRI cleavage %, ave (Polθ-pol:DNA/DNA complex [2]; 2.5min): 2.1%
EcoRI cleavage %, replicates #1-#3 (Polθ-pol:DNA/DNA complex [2]; 2.5min): 3.0% and 2.0% and 1.2%
EcoRI cleavage %, ave (Polθ-pol:DNA/DNA complex [2]; 5min): 2.5%
EcoRI cleavage %, replicates #1-#3 (Polθ-pol:DNA/DNA complex [2]; 5min): 3.0% (2×) and 1.4%
EcoRI cleavage %, ave (Polθ-pol:DNA/DNA complex [2]; 10min): 4.6%
EcoRI cleavage %, replicates #1-#3 (Polθ-pol:DNA/DNA complex [2]; 10min): 5.0% (2×) and 3.7%
EcoRI cleavage % (Polθ-pol:DNA/DNA complex [2]; pol+ddC+152, 0 min): 0.0%
EcoRI cleavage % (Polθ-pol:DNA/DNA complex [2]; pol+ddC+152, 5 min): 3.0%
cleavage normalized to 100%, i (Polθ-pol:DNA/DNA complex [2]; pol+ddC+152, 5 min): 100.0%
cleavage normalized to 100%, i+1 (Polθ-pol:DNA/DNA complex [2]; pol+ddC+152, 5 min): 100.0%
EcoRI cleavage % (Polθ-pol:DNA/DNA complex [2]; pol+ddC+152, 10 min): 3.7%
cleavage normalized to 100%, i (Polθ-pol:DNA/DNA complex [2]; pol+ddC+152, 10 min): 75.0%
cleavage normalized to 100%, i+1 (Polθ-pol:DNA/DNA complex [2]; pol+ddC+152, 10 min): 110.0%
EcoRI cleavage % (Polθ-pol:DNA/DNA complex [2]; pol+ddC+152, 20 min): 5.7%
cleavage normalized to 100%, i (Polθ-pol:DNA/DNA complex [2]; pol+ddC+152, 20 min): 48.0%
cleavage normalized to 100%, i+1 (Polθ-pol:DNA/DNA complex [2]; pol+ddC+152, 20 min): 119.0%
EcoRI cleavage % (Polθ-pol:DNA/DNA complex [2]; pol+ddC+152, 40 min): 9.5%
cleavage normalized to 100%, i (Polθ-pol:DNA/DNA complex [2]; pol+ddC+152, 40 min): 25.0%
cleavage normalized to 100%, i+1 (Polθ-pol:DNA/DNA complex [2]; pol+ddC+152, 40 min): 124.0%
i (%) (14 nt), replicates #1-#3 (Polθ-pol:DNA/DNA complex [2]; 2.5min): 25.8% and 27.6% and 28.2%
i (%), normalized to 100%, ave(%) (Polθ-pol:DNA/DNA complex [2]; 2.5min): 100.0%
i+1 (%) (15 nt), replicates #1-#3 (Polθ-pol:DNA/DNA complex [2]; 2.5min): 59.7% and 57.2% and 58.7%
i+1 (%) normalized to 100%, ave(%) (Polθ-pol:DNA/DNA complex [2]; 2.5min): 100.0%
i (%) (14 nt), replicates #1-#3 (Polθ-pol:DNA/DNA complex [2]; 5min): 22.2% and 22.6% and 25.1%
i (%), normalized to 100%, ave(%) (Polθ-pol:DNA/DNA complex [2]; 5min): 85.6%
i+1 (%) (15 nt), replicates #1-#3 (Polθ-pol:DNA/DNA complex [2]; 5min): 63.6% and 59.1% and 62.1%
i+1 (%) normalized to 100%, ave(%) (Polθ-pol:DNA/DNA complex [2]; 5min): 105.2%
i (%) (14 nt), replicates #1-#3 (Polθ-pol:DNA/DNA complex [2]; 10min): 15.4% and 16.3% and 17.9%
i (%), normalized to 100%, ave(%) (Polθ-pol:DNA/DNA complex [2]; 10min): 60.8%
i+1 (%) (15 nt), replicates #1-#3 (Polθ-pol:DNA/DNA complex [2]; 10min): 68.8% and 63.1% and 66.7%
i+1 (%) normalized to 100%, ave(%) (Polθ-pol:DNA/DNA complex [2]; 10min): 113.1%

CN(C(=O)Oc1ccc(C(F)(F)F)cc1C(F)(F)F)c1ccc(F)cc1 [MC160385]
inhibition of Polθ-pol MMEJ activity in vitro (Polθ-pol): substantial Polθ-pol MMEJ inhibition

— paper PMC10997755, “Discovery of a small-molecule inhibitor that traps Polθ on DNA and synergizes with PARP inhibitors” (Nature Communications, 2024)
